Values of other authors as cited in patent publication EP4810529A1, “1,1-DICYANOETHYLENE-CONTAINING COMPOSITION, CURED PRODUCT, LAMINATE, AND METHOD FOR PRODUCING 1,1-DICYANOETHYLENE-CONTAINING COMPOSITION” (Kuraray Co., Ltd., priority 2023, dated 2025).

Details: logarithmic acid dissociation constant, room temperature, aqueous system, first stage

SMILES: O=[N+]([O-])O [nitric acid]
- pKa: -1.3
